Test system: C. elegans wild-type N2 strain
Test: Worm culture and growth assay in axenic CeHR/mCeHR liquid medium
Type: in vivo
Parameters: key to Growth 1.6 μM hemin / Growth 0.5 μM GaPP: + = wild type equivalent In growth; ND: No growth
Description: (D) Biphasic response of C. elegans cultured in the presence of increasing amounts of hemin chloride (μM). Equal numbers of synchronized L1 larvae were grown in 24-well plates in mCeHR medium for 9 days and quantified (worms/μl) by microscopy. Each data point represents the mean±SD from three separate experiments performed in triplicate.
(A) Aerobic growth of C. elegans in mCeFIR medium with 20 μM hemin supplemented with either gallium protoporphyrin IX (GaPP) or gallium salts. Synchronized L1 larvae were grown for 9 days in 24-well plates and quantified (worms/μl) by microscopy. Each data point represents the mean from a single experiment, and each experiment was performed in triplicate. Inset depicts the GaPP analysis at lower concentrations for clarity.
(B) Effect of heme on the cytotoxicity of GaPP. Synchronized L1 larvae were inoculated in 24-well plates containing mCeHR medium with either 0, 2, 4, or 6 μM GaPP and increasing hemin (μM). The number of worms per μl was measured on day 9 and the data are presented as mean±SD.
FIG. 9 depicts worm utilization of heme-iron under iron deprivation. Equal numbers of synchronized L1 larvae were grown in the presence of 4, 20, and 100 μM hemin, either in basal mCeHR medium (set 1), or basal medium lacking exogenous iron (set 2), or as set 2 with 1 μM of the iron chelator ferrozine (set 3), or as set 3 with 486 μM ferrous ammonium sulfate (set 4). These values of ferrozine and iron were empirically determined by performing dose-response experiments and analyzing worm growth. The number of worms per μl was measured on day 9 and the data presented as mean±SD performed in triplicate. P<0.001 between sets 1 and 3.
To qualitatively and quantitatively determine the heme requirement of C. elegans, we assessed growth at various heme concentrations. Equal numbers of L1 larvae were inoculated in CeHR medium with either no cytochrome c and hemin, or with cytochrome c and increasing amounts of hemin (FIG. 4A). The effect of hemin became apparent within 48 hours and by 9 days, the heme-deplete worms were severely growth retarded at the L1/L2 stages. […] However, this stimulatory effect of heme was toxic to worms grown at heme concentrations >750 μM. To quantitatively assess the effect of heme on worms, we counted the number of live worms grown under different concentration of heme using DIC microscopy. […] On the basis of this association between heme and the growth and reproduction of C. elegans, we conclude that the biphasic nature of heme is likely due to the need for heme under heme-deprived conditions to perform essential metabolic functions, and the lethality of heme at high concentrations can be attributed to its cytotoxic activity.
Worm Culture and Growth Assays. Free-living worms were cultured in CeHR axenic liquid medium (Dr. Eric Clegg, Personal Communication). […] CeHR medium was modified (henceforth called mCeHR) to eliminate all sources of exogenously added heme; basal growth medium comprised 20 μM hemin chloride (Frontier Scientific, Logan, Utah) and 150 μM of ferrous ammonium sulfate (Sigma Chemicals). Worm strains were grown in mCeHR medium under aerobic conditions in tissue culture flasks at 20° C. ˜3.7×10^6 worms were routinely obtained after 3.5 to 4 days in a T75 flask with 30 ml basal medium from an initial inoculum of −1.5×10^5 worms. For initial culturing of worms in axenic media, three generations of worms were sequentially bleached (1.1% bleach/0.55 M NaOH) to eliminate any contaminating bacterial carryover from agar plates. In all dose-response experiments, worms were growth synchronized by treating the gravid hermaphrodite worms with bleach to dissolve adult worms. The eggs, resistant to bleach, were liberated from the carcasses and extensively washed with M9 buffer followed by overnight hatching in M9 buffer to synchronize growth. By harvesting at appropriate time intervals, synchronous larval stages and adult staged worms were collected for experimental manipulations. […]

## hemin chloride
4 and 500 μM hemin
  growth delay compared to worms grown at 20 μM hemin: ~24 h
20 and 100 μM hemin, with ferrozine, P<0.001
  effect on growth under iron deprivation: attenuated the growth retarding effects of iron deprivation
CeHR medium
  heme concentrations toxic to worms: > 750 µM
CeHR medium with cytochrome c, L1 larvae inoculum
  hemin concentration at which maximum growth was achieved: 10 µM
Control Wild-type (N2)
  Growth 1.6 μM hemin: +
Control Wild-type (N2), 20 μM hemin
  Generation time (Days) 20 μM: 3.5 days
Control Wild-type (N2), 20 μM hemin, average in 24 well plates
  brood size 20 μM: 62.3
Control Wild-type (N2), 800 μM hemin
  Generation time (Days) 800 μM: >16 days
In vivo
  sensitivity to heme in liquid medium versus heme plates: 10 times
mCeHR medium
  hemin amount resulting in growth arrest at the L3 stage: ≥ 800 µM
mCeHR medium, 9 days
  optimum concentration of hemin for growth: 20 µM
